The values below come from publication PMC7871391, “The novel TRPA1 antagonist BI01305834 inhibits ovalbumin-induced bronchoconstriction in guinea pigs” (Respiratory Research, 2021).

One assay has as its system guinea-pig lung slices. Nature of the assay: TRPA1 agonism in lung slices (airway narrowing, histamine release). The conditions noted are these: data not shown. As for the experimental part: Lung slices were used for OA and histamine induced airway narrowing studies. In order to do this, lung slices were placed in 1 ml medium and fixed with a plastic ring. After 30 min pre-treatment with the TRPA1 antagonist BI01305834 (0.01, 0.1, 1 or 10 µM) or the vehicle (10% cyclodextrin) OA (10^–5-10^2 µg.ml^−1) or histamine (10^–8-10^–2 M) dose–response curves were established. Using a microscope (Eclipse, TS100; Nikon) time-lapse images (1 frame per 2 s) of the lung slices were captured. The airway luminal area was quantified using image acquisition software (NIS-elements; Nikon) and expressed as percentage of basal area, as described previously.
Lung slices were used for OA-induced histamine determinations, with separate slices for each condition individually. BI01305834 and vehicle pre-treated lung slices were challenged with OA (10 µg.ml^−1) for 5 min. […] Histamine levels of original supernatant and homogenized lung slice supernatant were assessed by liquid chromatography in combination with isotope dilution tandem mass spectrometry (LC–MS/MS). […] Inter-assay imprecision (n = 20 days) was < 2.9% at three different levels (60, 986, 3873 nM, respectively) and limit of quantification was 3.0 nM. Histamine release was calculated as percentage of total histamine present in both supernatant and slice. […]

The next assay relates to TRPA1. Set-up: method as in PMID 17686976, PMID 18954467. The following applies: TRPA1-mediated calcium flux ref 46, 47; cited from earlier work.

Each structure is given as a SMILES string.

In the case of `C=CCN=C=S` [AITC, allyl isothiocyanate], in the assay on guinea-pig lung slices, the “induction of airway narrowing” value is on record as “unable to induce” and the “induction of histamine release” value was “unable to induce”.

For `CC(C)c1ccc(NC(=O)Cn2cnc3c2c(=O)n(C)c(=O)n3C)cc1` [HC030031], the IC50 with TRPA1 is 6.2 to 7.5 µM.
